Several values for one entry are separate records, joined by “and”; a condition that tells them apart may be missing. Equal entries are not always repeated.
Legend:
xSirt4 Wild-type = assay: Coupled continuous assay, xSirt4 wild-type; format: biochemical, Xenopus tropicalis; details: HMG-CPS1 peptide substrate, n = 2
Method: The coupled continuous assay was performed as reported. Briefly, assays in 20 mM sodium phosphate buffer pH 7.8 contained 5 µM hSirt4 or 3–5 µM xSirt4, 0.05 mg ml^−1 nicotinamidase, 2 U ml^–1 GDH, 3.3 mM a-ketoglutarate, 0.2 mM NADPH, 10% DMSO, and NAD^+ at 2 mM or as indicated, and substrate peptide at 500 µM or as indicated. Reactions were monitored in microplates at room temperature for 1 h through absorption measurements at 340 nm in a LAMBDAScan plate reader (MWG Biotech, Ebersberg, Germany).

sirtuins = details: cited from earlier work
Source text: All sirtuins share NAD^+ as an essential cosubstrate, but the Sirt4 nucleotide binding site differs from those of other isoforms. The Sirt4-loop tightens the entry of the C-site, where the conserved Asp145 recognizes the NAM moiety of NAD^+ [25], and its tip around Pro200 will have to rearrange slightly to allow productive NAD^+ binding (Supplementary Fig. 3c), consistent with a switch function.

hSirt4 [1] = target: T1, hSirt4 (Homo sapiens, UniProt Q9Y6E7); assay: Coupled continuous enzymatic assay monitoring NAM release from NAD+ (Sirt4 deacylation); format: biochemical; details: hSirt4 wild-type
T1 construct: hSirt4(25–314) in pQE30 coding for an N-terminal His6-tag; His6 (N); made in house; host or cells: Escherichia coli CodonPlus(DE3)
T1 sequence (Q9Y6E7 25-314): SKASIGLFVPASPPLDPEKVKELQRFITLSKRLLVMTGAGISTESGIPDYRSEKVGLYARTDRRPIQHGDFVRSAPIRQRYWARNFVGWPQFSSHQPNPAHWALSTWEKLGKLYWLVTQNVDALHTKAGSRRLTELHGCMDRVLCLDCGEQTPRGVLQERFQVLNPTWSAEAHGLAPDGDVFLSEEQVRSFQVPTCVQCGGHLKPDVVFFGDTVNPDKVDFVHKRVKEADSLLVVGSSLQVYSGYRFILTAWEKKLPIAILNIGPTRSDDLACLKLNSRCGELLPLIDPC
Method: The seven mammalian sirtuins vary in their sequence and acyl preferences[16],[19]. […] We therefore asked whether other acyl modifications would yield deacylation efficiencies expected for a physiologically dominant Sirt4 activity.
(§1) The coupled continuous assay was performed as reported. […] Reactions were monitored in microplates at room temperature for 1 h through absorption measurements at 340 nm in a LAMBDAScan plate reader (MWG Biotech, Ebersberg, Germany).

xSirt4 = assay: Thermal denaturation shift assay; format: binding, Xenopus tropicalis; details: 3 µM xSirt4, SYPRO orange, 20 to 73 °C; n = 2
Method: Thermal shift assays were performed in 96-well PCR plates using 3 µM xSirt4 (32–315) or 3 µM zSirt4 (29–310) and SYPRO orange (Thermo Fisher, Waltham, MA, USA) covered with 15 µL mineral oil. Heating and fluorescence measurements were performed in a FluoDia T70 with 1 K steps from 20 to 73 °C (excitation: 465 nm, emission: 580 nm). The data were analyzed in GraFit (Erithacus Software Ltd, Horley, UK) by nonlinear fitting using a two state model.

xSirt4 Delta 198–203 = assay: Coupled continuous assay, xSirt4 variant; format: biochemical, Xenopus tropicalis; details: Sirt4 loop deletion variant (198-203), HMG-CPS1 peptide substrate; n = 2
Method: For xSirt4(32–315) and zSirt4(29–310) eluted from the NiNTA material, the buffer was changed to 50 mM Tris/HCl pH 7.5, 200 mM NaCl, (supplemented with 20% glycerol for xSirt4) in a HiPrep Desalting column and subjected to Senp2-proteolysis for 30 min on ice. The protein was loaded on a HisTrap HP 1 mL column (GE Healthcare) and eluted with 50 mM Tris/HCl pH 7.5, 200 mM NaCl, 30–50 mM imidazole. It was subsequently subjected to gel filtration on a Superdex 75 10/300 GL (xSirt4) or Superdex 200 10/300 GL (zSirt4) column (both GE Healthcare) in 25 mM Tris/HCl pH 7.5, 150 mM NaCl (+20 % glycerol for xSirt4), concentrated in a Microsep concentrator, flash-frozen in liquid nitrogen, and stored at −80 °C. xSirt4 single-site variants were generated using the QuickChange protocol (see Supplementary Table 1 for primer sequences) and verified by DNA sequencing, and the proteins were produced as described for wild-type xSirt4.
as §1

hSirt4 [2] = target: T1, hSirt4; assay: HMG-FdL (Fluor-de-Lys-like) de-HMG-ylation assay; format: biochemical; details: HMG-FdL assay, 1 µM hSirt4, 500 µM HMG-FdL substrate, 500 μM NAD+, 37 °C, 20 min; fluorescence; n = 2; NADH corrected through spiking controls
Method: As a convenient and complementary, fluorescence-based alternative to the coupled enzymatic assay with HMG-peptides, we established substrate and assay corresponding to the popular “Fluor-de-Lys” (FdL) deacylation assays. […] We then employed the FdL-like Sirt4 assay for studying the effects of NAM and NADH, which are not compatible with the coupled assay. […] After 20 min, developer solution (2 mM NAM and 10 mg mL^−1 trypsin) in assay buffer was added 1:1 and samples were incubated for 45 min at room temperature. Fluorescence was measures using a FluoDia T70 with excitation wavelength 365 nm and emission wavelength 465 nm.

Sirt4 = target: T2, Sirt4 (Homo sapiens, UniProt Q9Y6E7); assay: MS-based Sirt4 inhibition assay with HMG-CPS1 substrate; format: biochemical; details: n = 2 (Supplementary Fig. 4b)
T2 construct: hSirt4(25–314) in pQE30 coding for an N-terminal His6-tag; His6 (N); made in house; host or cells: Escherichia coli CodonPlus(DE3)
T2 sequence (Q9Y6E7 25-314): T1 sequence (Q9Y6E7 25-314)
Method: For MS and UV analyzes of deacylation reactions, samples were prepared as described for the coupled continuous assay, stopped by mixing 1:1 with 0.5% TFA after 0 and 60 min, diluted to 20 µM peptide using 0.1% FA, and analyzed by HPLC-separation using a Shimadzu Prominence UFLC (Shimadzu, Duisburg, Germany) coupled to ESI-MS and UV detection. Samples were washed on a Piccolo Proto 200 C4 5 μm 2.5 × 0.5 mm trap column (Higgins Analytical, Mountain View, California) and subsequently subjected to a Jupiter C4 5 μm 300 Å 150 × 1 mm analytical column (Phenomenex, Torrance, California) for reversed phase separation, with 99.9% H2O, 0.1% TFA as buffer A and 99.9% ACN, 0.1% TFA as buffer B. Peptides were eluted over a 20 min gradient from 1 to 55% buffer B, followed by 1 min from 55 to 90% buffer B with 70 µL min^−1 flow-rate. UV-detection was done using a Shimadzu SPD-20A detector at 280 nm. MS analysis was performed by ESI-TOF-MS on an AB Sciex TripleTOF 5600+ mass spectrometer (Sciex, Darmstadt, Germany) with a DuoSpray Ion Source using the following settings: floating voltage of 5500 V and declustering potential of 100 with one TOF experiment summing over four time bins. We detected in a mass range from 300 to 2500 m/z. […]

other sirtuins = details: cited from earlier work

Row | K M (NAD+ titration) (hSirt4 [1]) | IC50 (hSirt4 [2]) | IC50 (Sirt4) | SMILES | K M (NAD+ titration) (xSirt4 Wild-type) | K M(NAD+) range reported for sirtuins (sirtuins) | Sirt4 stabilization in thermal denaturation shift experiments (xSirt4) | K M (NAD+ titration) (xSirt4 Delta 198–203) | IC50 (other sirtuins; other sirtuin isoforms, read-out: IC 50 on other sirtuins) | Ki (other sirtuins; read-out: K i on other sirtuin isoforms)
1 | 62 ± 14 µM | – | – | NC(=O)c1ccc[n+]([C@@H]2O[C@H](COP(=O)([O-])OP(=O)(O)OC[C@H]3O[C@@H](n4cnc5c(N)ncnc54)[C@H](O)[C@@H]3O)[C@@H](O)[C@H]2O)c1 [NAD^+] | 70 ± 14 µM | 14 to 600 µM | significant Sirt4 stabilization | 66 ± 9 µM | – | –
2 | – | 126 ± 12 µM | 142 ± 54 µM | NC(=O)C1=CN([C@@H]2O[C@H](COP(=O)(O)OP(=O)(O)OC[C@H]3O[C@@H](n4cnc5c(N)ncnc54)[C@H](O)[C@@H]3O)[C@@H](O)[C@H]2O)C=CC1 [NADH] | – | – | – | – | 1300 to 27900 µM and ≥ 1300 µM | ≥ 700 µM
